In patent publication US9738657B2, “Highly efficient polarizing agents for dynamic nuclear polarization” (Bruker Biospin S.A.S., priority 2013, dated 2017):
≈ marks a conversion by molar mass, not a printed value.

Assay: Solubility in Glycerol/H2O (60/40)
Settings: for solubility: glycerol/water (60/40), aqueous with cosolvent or surfactant or cyclodextrin

| Molecule | Solubility in Glycerol/H2O (60/40) | solubility |
| --- | --- | --- |
| (4-{3-[1-(PEG)-1H-1,2,3-Triazol-4-yl]propyl}[(1-oxyl-2,2,6,6-tetramethylpiperidin-4-yl)carbamoyl]amino}-2,2,6,6-tetramethylpiperidin-1-yl)oxidanyl [Compound 61] | ~20 mM |  |
| 4,4-ureylene-di-(2,2,6,6-tetramethylpiperidinyloxyl) [bTUrea, reference compound] | ~3 mM |  |
| (4-{(2,5,8,11-tetraoxatridecan-13-yl)[(1-oxyl-2,2,6,6-tetramethyl piperidin-4-yl)carbamoyl]amino}-2,2,6,6-tetramethylpiperidin-1-yl)oxidanyl [Compound 52] | ~10 mM |  |
| (15-{[(7-oxyl-3,11-dioxa-7-azadispiro[5.1.5.3]hexadec-15-yl)carbamoyl][2-(2,5,8,11-tetraoxatridecan-13-ylamino)}-[3,11-dioxa-7-azadispiro[5.1.5.3]hexadec-7-yl])oxidanyl [Compound 58] | ~25 mM |  |
| (15-{[(7-oxyl-3,11-dioxa-7-azadispiro[5.1.5.3]hexadec-15-yl)carbamoyl][2-(2-methoxyethoxy)ethyl]amino}-[3,11-dioxa-7-azadispiro[5.1.5.3]hexadec-7-yl])oxidanyl [Compound 57] | ~25 mM |  |
| [O]N1C2(CCOCC2)CC(NC(=O)NC2CC3(CCOCC3)N([O])C3(CCOCC3)C2)CC12CCOCC2 (stereo not shown) [Compound 56, (15-{[(7-Oxyl-3,11-dioxa-7-azadispiro[5.1.5.3]hexadec-15-yl)carbamoyl]amino}-[3,11-dioxa-7-azadispiro[5.1.5.3]hexadec-7-yl])oxidanyl] |  | ~25 mM (≈ 13.4 mg/mL) |
| O=C(NC1CC2(CCOCC2)N(O)C2(CCOCC2)C1)N(CCOCCO)C1CC2(CCOCC2)N(O)C2(CCOCC2)C1 (stereo not shown) [Compound 71, (15-{[(7-Oxyl-3,11-dioxa-7-azadispiro[5.1.5.3]hexadec-15-yl)carbamoyl][2-(2-hydroxyethoxy)ethyl]amino}-[3,11-dioxa-7-azadispiro[5.1.5.3]hexadec-7-yl])oxidanyl] |  | > 20 mM |
| COCCOCCOCCOCCOC1CN(C2CC3(CCOCC3)N([O])C3(CCOCC3)C2)C(=O)N(C2CC3(CCOCC3)N([O])C3(CCOCC3)C2)C1 (stereo not shown) [Compound 70, 1,3-Bis(7-oxyl-3,11-dioxa-7-azadispiro[5.1.5.3]hexadec-15-yl)-5-(2,5,8,11-tetraoxatridecan-13-yloxy)tetrahydropyrimidin-2(1H)-one] |  | > 10 mM |
| α-{(7-Oxyl-3,11-dioxa-7-azadispiro[5.1.5.3]hexadec-15-yl)[(7-oxyl-3,11-dioxa-7-azadispiro[5.1.5.3]hexadec-15-yl)carbamoyl]amino}ω-methylpoly(ethane-1,2-diyloxy) [Compound 72] | >20 mM |  |
| (4-{[2-(2-methoxyethoxy)ethyl][(1-oxyl-2,2,6,6-tetramethylpiperidin-4-yl)carbamoyl]amino}-2,2,6,6-tetramethylpiperidin-1-yl)oxidanyl [Compound 51] | ~10 mM |  |
